Converted amounts (≈) assume the structure as drawn.
How the values were obtained:
Assay type in all cases: functional
Staphylococcus aureus [1] = assay: Antimicrobial activity against methicillin-resistant Staphylococcus aureus MW2 CB1118 by Etest method
Staphylococcus aureus [2] = assay: Antimicrobial activity against methicillin-resistant Staphylococcus aureus MW2 CB2201 after 1-day passage containing sublethal concentration of compound by Etest method; details: MW2 CB2201, 24 h
Staphylococcus aureus [3] = assay: Antimicrobial activity against methicillin-resistant Staphylococcus aureus MW2 CB2202 harboring […] MprF T345I mutant after 5-day passage containing sublethal concentration of compound by Etest method; details: MW2 CB2202, 120 h
Staphylococcus aureus [4] = assay: Antimicrobial activity against methicillin-resistant Staphylococcus aureus MW2 CB2203 harboring […] MprF T345I, RpoB I953S mutant after 14-day passage containing sublethal concentration of compound by Etest method; details: MW2 CB2203, 336 h
Staphylococcus aureus [5] = assay: Antimicrobial activity against methicillin-resistant Staphylococcus aureus MW2 CB2205 harboring […] MprF T345I, RpoB I953S,YycG S221P mutant after 20-day passage containing sublethal concentration of compound by Etest method; details: MW2 CB2205, 480 h

What does the source list for `CCCCCCCCCC(=O)N[C@@H](Cc1c[nH]c2ccccc12)C(=O)N[C@H](CC(N)=O)C(=O)N[C@@H](CC(=O)O)C(=O)N[C@@H]1C(=O)NCC(=O)N[C@@H](CCCN)C(=O)N[C@@H](CC(=O)O)C(=O)N[C@H](C)C(=O)N[C@@H](CC(=O)O)C(=O)NCC(=O)N[C@H](CO)C(=O)N[C@@H]([C@H](C)CC(=O)O)C(=O)N[C@@H](CC(=O)c2ccccc2N)C(=O)O[C@@H]1C`?
MIC (Staphylococcus aureus [1]): 1 µg/mL (≈ 0.617 µM); MIC (Staphylococcus aureus [2]): 1.5 µg/mL (≈ 0.926 µM); MIC (Staphylococcus aureus [3]): 3 µg/mL (≈ 1.85 µM); MIC (Staphylococcus aureus [4]): 6 µg/mL (≈ 3.7 µM); MIC (Staphylococcus aureus [5]): 12 µg/mL (≈ 7.4 µM)

From ChEMBL document CHEMBL1649459, “Analysis of cell membrane characteristics of in vitro-selected daptomycin-resistant strains of methicillin-resistant Staphylococcus aureus” (2009)
